Test results from patent US5854279A, “Therapeutic agent for dermatosis” (Eisai Co., Ltd, priority 1996, dated 1998).
Counter-ions that a name gives are not always drawn.

Legend:
[1] = test system: TPA-induced earlobe edema; experiment: TPA-induced ear edema; assay type: in vivo, BALB/c mouse; conditions: for Right earlobe edema: TPA 2 μmol, average of seven cases ± SEM
Method: The test was conducted according to the method by Carlson et al. (Agents and Actions, 1985, 17(2), p 197-204).
(§1) That is, 2 mg of TPA (phorbol 12-myristate 13-acetate, manufactured by Sigma Chemical Co.) and 4 to 100 nmol of Compound (II) or 250 nmol of dexamethasone (manufactured by Sigma Chemical Co.) were dissolved in 20 ml of acetone. The mixture was applied to inner surface of the right earlobe of BALB/c mouse (male, age in week of 8), to induce inflammation. Four hours after TPA application, the mouse was killed by dislocation of cervical vertebrae and the thickness of each right and left earlobe was measured by using a Dial Thickness Gauge (manufactured by Peacock Co., G0.01 to 10 mm) and the difference in thickness between right and left earlobe was considered as edema.

MPO (myeloperoxidase) = experiment: MPO activity in TPA-treated earlobe; assay type: in vivo, BALB/c mouse; conditions: for MPO Activity: TPA 2 μmol, average of seven cases ± SEM
Method: as §1, with “The” for “That is, 2 mg of TPA (phorbol 12-myristate 13-acetate, manufactured by Sigma Chemical Co.) and 4 to 100 nmol of Compound (II) or 250 nmol of dexamethasone (manufactured by Sigma Chemical Co.) were dissolved in 20 ml of acetone. The”
2) Measurement of MPO Activity
After measurement of edema, MPO (myeloperoxidase) activity of the excised right earlobe was measured by the following method. 1 ml of 0.5% HTAB (hexadecyl trimethylammonium bromide, manufactured by Sigma Chemical Co.)/50 mM potassium phosphate buffer, pH 6.0 was added to the excised right earlobe and homogenized. The supernatant obtained after centrifugation was used as an extract. Measurement of MPO activity in the extract was carried out according to a method using a 96-well plate. […] Absorbance at 450 nm was measured for 3 minutes at every 10 seconds. The slope of the straight line obtained for 1 minute after 10 seconds from the beginning of the reaction was calculated for every each sample. MPO activity when the slope is 1 is defined as 1 unit (U), and number of unit in the extract was obtained. Further, the amount of protein in the extract was quantified by BIO-RAD PROTEIN ASSAY (manufactured by Bio-Rad Laboratories), and expressed as MPO activity/mg protein.

[2] = Acute toxicity test, single intravenous dosage (LD50), mouse; design: species or system mouse (Slc:ICR); conditions: in vivo
Text: (§2) Slc:SD rat and Slc:ICR mice (age in week of 6 to 8), each group has 5 male and 5 female, were applied to a toxicity test upon single dosage carried out by intravenous administration.

[3] = test system: epidermal ornithine decarboxylase (ODC); experiment: TPA-induced mouse epidermal ornithine decarboxylase (ODC) activity; assay type: in vivo, hairless mouse (SKH/hr-1); conditions: for Epidermal ODC Activity: TPA 17 nmol, average of five cases ± standard error
Method: (2) Measurement of Mouse Epidermal Ornithine Decarboxylase (ODC) Activity
1) Induction of ODC Activity
The experiment was carried out according to the method by O'Brien et al. (Cancer Research, 1975, 35(2), p 1662-1670).
[…] of acetone solution containing 17 nmol of TPA (phorbol 12-myristate 13-acetate, manufactured by Sigma) and 0.5 to 2 μmol of Compound (II) or 2-(2-acetyl-6-methoxy-3,9-dioxo-4,8-dioxa-2,10-diazaoctacosa-1-yl)-1-ethylpyridinium salt (customary name; CV-6209, manufactured by Wako Junyaku) was homogeneously applied on the skin of the back (about 8 cm^2) of the hairless mouse (strain: SKH/hr-1, female, age in week of 9). After 4.5 hours, mouse was killed by anesthetizing with ether, and skin tissue was excised. The skin tissue was treated at 55° C. for 30 seconds, then ice-cooled and the epidermis was peeled off. To this epidermis, 1 ml of 50 mM sodium phosphate buffer [pH 7.2, 0.4 mM pyridoxal 5-phosphate (manufactured by Sigma), 5 mM dithiothreitol (manufactured by Sigma)] were added, homogenized and then centrifuged at 4° C. and 30,000 g for 30 minutes to obtain a supernatant.
2) Measurement of ODC Activity
ODC activity in the supernatant was measured by ^14 CO2 release from L-[1-^14 C]ornithine (manufactured by Sigma) as an index. A tube containing 50 μl of the above buffer comprising 1 mM L-ornithine and […] L-[1-^14 C]ornithine (manufactured by Amersham) as well as 100 μl of homogenate sample added thereto was rapidly placed into a vial, and sealed. This vial was incubated at 37° C. for one hour, to which was added 0.3 ml of 2M citric acid solution and further incubated for one hour. ^14 CO2 released during this period was trapped by using a filter containing 0.15 ml of NCS solubilizer set in the reaction vial. After removing out the tube, 15 ml of liquid scintillator (ACSII) was added and radioactivity in the vial was measured by using a liquid scintillation counter.
Further, the concentration of protein in the homogenate sample was quantified by using the above BIO-RAD PROTEIN ASSAY, and the amount of the released ^14 CO2 /mg protein was calculated and used as an index of ODC activity.

[4] = Acute toxicity test, single intravenous dosage (LD50), rat; design: species or system rat (Slc:SD); conditions: in vivo
Text: as §2

[5] = 2 μmol, Compound (II) p < 0.01 vs. TPA control
[6] = 2 μmol, significant for Compound (II)

C[C@@H]1C[C@H]2[C@@H]3CCC4=CC(=O)C=C[C@]4(C)[C@@]3(F)[C@@H](O)C[C@]2(C)[C@@]1(O)C(=O)CO [Dexamethasone, dexamethasone, reference compound]
inhibition for TPA-induced earlobe edema ([1]; 250 nmol/ear, significant): about 60%
Right earlobe edema ([1]; 250 nmol/earlobe, P < 0.05): 34.7 ± 3.3 μm
inhibition against MPO activity (MPO (myeloperoxidase); 250 nmol/ear): about 13%
MPO Activity (MPO (myeloperoxidase); 250 nmol/earlobe): 5.52 ± 0.59 U/mg, protein

CCCCCCCCCCCCCCCCCCNC(=O)OC1CCN(C(=O)OC[C@H](COC(=O)N(Cc2cccc[n+]2CC)C(=O)c2ccccc2OC)OC)CC1 [Compound (II), 1-ethyl-2-[N-(2-methoxy)benzoyl-N-{(2R)-2-methoxy-3-(4-octadecylcarbamoyloxy)piperidinocarbonyloxypropoxy}carbonyl]aminomethyl pyridinium chloride]
inhibition for TPA-induced earlobe edema ([1]; 4 nmol/ear): no inhibition
Right earlobe edema ([1]; 4 nmol/earlobe): 105.9 ± 33.4 μm
inhibition for TPA-induced earlobe edema ([1]; 20 nmol/ear): no inhibition
Right earlobe edema ([1]; 20 nmol/earlobe): 92.7 ± 19.8 μm
inhibition for TPA-induced earlobe edema ([1]; 100 nmol/ear, significant): about 81%
Right earlobe edema ([1]; 100 nmol/earlobe, P < 0.05): 16.7 ± 3.0 μm
LD50 ([2]; female): 50 mg/kg
LD50 ([2]; male): 46.8 mg/kg
inhibition against MPO activity (MPO (myeloperoxidase); 4 nmol/ear): did not show inhibition
MPO Activity (MPO (myeloperoxidase); 4 nmol/earlobe): 7.63 ± 1.30 U/mg, protein
inhibition against MPO activity (MPO (myeloperoxidase); 20 nmol/ear): did not show inhibition
MPO Activity (MPO (myeloperoxidase); 20 nmol/earlobe): 8.51 ± 1.21 U/mg, protein
inhibition against MPO activity (MPO (myeloperoxidase); 100 nmol/ear): about 46%
MPO Activity (MPO (myeloperoxidase); 100 nmol/earlobe): 3.45 ± 1.06 U/mg, protein
Epidermal ODC Activity ([3]; 0.5 μmol, P < 0.05 vs. TPA control): 0.379 ± 0.130 nmol CO2 /mg protein
inhibition of TPA-induced increase in epidermal ODC activity ([3]; 0.5 μmol, significant): about 52%
Epidermal ODC Activity [3, 5]: 0.136 ± 0.066 nmol CO2 /mg protein
inhibition of TPA-induced increase in epidermal ODC activity [3, 6]: ~83%
LD50 ([4]; female): 22.9 mg/kg
LD50 ([4]; male): 18.2 mg/kg

CCCCCCCCCCCCCCCCCCNC(=O)OCC(COC(=O)N(Cc1cccc[n+]1CC)C(C)=O)OC (centres unmarked) [CV-6209, 2-(2-acetyl-6-methoxy-3,9-dioxo-4,8-dioxa-2,10-diazaoctacosa-1-yl)-1-ethylpyridinium salt]
Epidermal ODC Activity [3, 5]: 0.374 ± 0.147 nmol CO2 /mg protein
inhibition of TPA-induced increase in epidermal ODC activity [3, 6]: about 53%
